Data taken from patent publication US20220402867A1, “SULFO-SUBSTITUTED BIARYL COMPOUND OR SALT THEREOF, PREPARATION METHOD THEREFOR, AND USE THEREOF” (Shanghai Litedd Co., Ltd., priority 2019, published 2022).
pEC50: −log10 of the molar value.

Experiments:
[1] = Metabolic stability in human liver microsomes; type: in vitro ADME; conditions: for microsomal CLint: 0.5 mg protein/mL
In short: (§1)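 Compound incubated at 37 °C with 0.5 mg protein/mL liver microsomes plus cofactors in PBS, sampled at 0–60 min, quenched with cold acetonitrile and quantified by HPLC-MS/MS (n=3). Half-life and Clint (μL/min/mg) come from the slope of ln(% remaining) versus time.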

[2] = biological target: T1, RORγt (RORγ-LBD chimeric receptor) (Homo sapiens, UniProt P51449); assay: Luciferase reporter gene assay of RORγt agonistic activity in HEK293T cells; type: cell-based; design: Emax: dose or concentration left out as unconfirmed; conditions: for pEC50: HEK293T, GAL4 luciferase reporter, read-out: EC50; for Emax: HEK-293T
T1 construct: host or cells: HEK293T
T1 sequence (P51449 269-508 limits assumed): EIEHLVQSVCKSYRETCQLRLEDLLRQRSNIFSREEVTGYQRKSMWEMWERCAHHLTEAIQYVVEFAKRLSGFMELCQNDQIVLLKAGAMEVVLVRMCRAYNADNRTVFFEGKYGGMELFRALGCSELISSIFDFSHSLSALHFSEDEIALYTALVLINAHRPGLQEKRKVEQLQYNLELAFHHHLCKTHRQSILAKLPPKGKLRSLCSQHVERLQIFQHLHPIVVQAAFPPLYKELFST
In short: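 EC50 derived from % activity (relative to positive control and vehicle) versus log concentration, using luciferase luminescence in transfected HEK293T cells. The cells carried a RORγ-LBD/GAL4 chimera plus a GAL4-promoter reporter; compounds were 3-fold serially diluted, 10 points from a 10 mM DMSO stock.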

[3] = test system: human PBMC (Th17 cells); assay: Th17 differentiation and IL-17 secretion in human PBMC; type: cell-based; conditions: IL-17 ELISA after 48 hours; for Emax: maximum activation rate
Procedure: Test procedure: PBMC cells were first thawed and plated, and then stimulated with stimulating factors (anti-hCD28: 5 μg/mL; rhTGF-β1: 5 ng/mL; rhIL-6: 20 ng/mL; rhIL-23: 10 ng/Ml) to differentiate to Th17, while adding different concentrations of compounds. All test compounds were serially diluted at 3-fold dilution with DMSO, with 8 serial dilutions starting from the maximum concentration 3 μM. The supermatants were collected after 48 hours for IL-17 ELISA detection, and compared with the solvent group, to determine the activation rate of the compounds on Th17 cells to secrete IL-17. EC50 values were fitted with Graphad8.0, and the TOP values fitted by the software was Emax %.

[4] = biological target: T2, GST-RORγ LBD (263-509) (Homo sapiens, UniProt P51449); assay: TR-FRET assay of agonistic activity on RORγ receptor; type: biochemical; conditions: for pEC50: TR-FRET, GST-RORγ LBD with Biotin-SRC1
T2 construct: GST-RORγ LBD ((263-509) (produced at ChemPartner))
T2 sequence (P51449 263-509): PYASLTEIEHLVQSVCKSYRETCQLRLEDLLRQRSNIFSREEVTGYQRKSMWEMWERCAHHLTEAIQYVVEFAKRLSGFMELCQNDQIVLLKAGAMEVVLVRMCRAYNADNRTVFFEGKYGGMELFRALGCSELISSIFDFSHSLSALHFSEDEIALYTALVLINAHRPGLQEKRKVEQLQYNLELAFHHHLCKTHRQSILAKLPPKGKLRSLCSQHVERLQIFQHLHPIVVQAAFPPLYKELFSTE
In short: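 GST-RORγ LBD (75 nM solution) mixed 1:1 with Biotin-SRC1 (4 nM solution), then with Eu anti-GST and SA-APC; compounds in 10-point 3-fold series from 10 mM stock, duplicate.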

[5] = Metabolic stability in mouse liver microsomes; type: in vitro ADME, CD-1 mice; conditions: for half-life: CD-1; for microsomal CLint: CD-1, 0.5 mg protein/mL
In short: as §1

[6] = Pharmacokinetic (PK) assay in mice; type: in vivo; conditions: CD-1 mice
In short: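 Plasma concentrations were quantified by UPLC-MS/MS in EDTA-K2 plasma collected from the saphenous vein over 0–24 h, and PK parameters were derived from them. Two groups of 3 CD-1 mice were used: 5 mg/kg oral gavage (DMSO/1% methylcellulose 1:99) and 1 mg/kg intravenous (5% DMSO/40% PEG400/55% (20% 3-CD)).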

[7] = maximum activation rate, TOP of fitted curve

| Compound | half-life [1] [h] | microsomal CLint [1] [µL/min/mg] | % Remaining (T = 60 min) [1] [%] | pEC50 [2] | Emax [2] [%] | pEC50 [4] | Emax [4, 7] [%] | % Remaining (T = 60 min) [5] [%] | half-life [5] [h] | microsomal CLint [5] [µL/min/mg] | pEC50 [3] | Emax [3] [%] | further results |
| --- | --- | --- | --- | --- | --- | --- | --- | --- | --- | --- | --- | --- | --- |
| COCC(C(=O)Nc1cc(Cl)c(-c2ccc(S(=O)(=O)C3CC3)cc2)c(Cl)c1)c1ccc(S(C)(=O)=O)cc1 (single isomer, unassigned) [Example 34, (S)—N-(2,6-dichloro-4′-(cyclopropylsulfonyl)-[1,1′-biphenyl]-4-yl)-3-methoxy-2-(4-(methylsulfonyl)phenyl)propanamide or (R)—N-(2,6-dichloro-4′-(cyclopropylsulfonyl)-[1,1′-biphenyl]-4-yl)-3-methoxy-2-(4-(methylsulfonyl)phenyl)propanamide] | 1.48 | 15.6 | 62.4 | 7.17 | 70.7 | 8.29 | 191 | 74.5 | > 2.42 | < 9.6 | 7.24 | 195 | – |
| CS(=O)(=O)c1ccc(C(CO)C(=O)Nc2cc(Cl)c(-c3ccc(S(=O)(=O)C4CC4)cc3)c(Cl)c2)cc1 (single isomer, unassigned) [Example 36, (S)—N-(2,6-Dichloro-4′-(cyclopropylsulfonyl)-[1,1′-biphenyl]-4-yl)-2-(4-(methylsulfonyl)phenyl)-3-hydroxypropionamide or (R)—N-(2,6-dichloro-4′-(cyclopropylsulfonyl)-[1,1′-biphenyl]-4-yl)-2-(4-(methylsulfonyl)phenyl)-3-hydroxypropionamide] | 1.69 | 13.7 | 62.3 | 7.27 | 71.3 | 8.37 | 200 | 83.9 | > 2.42 | < 9.6 | 7.44 | 169 | – |
| CCS(=O)(=O)c1ccc(C(COC)C(=O)Nc2cc(Cl)c(-c3ccc(S(=O)(=O)C4CC4)cc3)c(Cl)c2)cc1 (single isomer, unassigned) [Example 40, (S)—N-(2,6-dichloro-4′-(cyclopropylsulfonyl)-[1,1′-biphenyl]-4-yl)-2-(4-(ethylsulfonyl)phenyl)-3-methoxypropionamide or (R)—N-(2,6-dichloro-4′-(cyclopropylsulfonyl)-[1,1′-biphenyl]-4-yl)-2-(4-(ethylsulfonyl)phenyl)-3-methoxypropionamide] | 2.4 | 9.6 | 71.1 | 7.03 | 77.5 | 8.00 | – | 71.8 | 1.95 | 11.8 | 7.59 | 224 | Emax % [4, 7]: 199.3% |
| CCS(=O)(=O)c1ccc(CC(=O)Nc2cc(Cl)c(-c3ccc(S(=O)(=O)C4CC4)cc3)c(Cl)c2)cc1 [Example 6] | > 2.42 | < 9.6 | 82 | 7.89 | 42.1 | 8.43 | 171 | 78.60 | > 2.42 | < 9.6 | 7.31 | 254 | – |

Now from value to molecule, other results behind:

| half-life [1] [h] | microsomal CLint [1] [µL/min/mg] | % Remaining (T = 60 min) [1] [%] | pEC50 [2] | Emax [2] [%] | pEC50 [4] | Emax [4, 7] [%] | % Remaining (T = 60 min) [5] [%] | half-life [5] [h] | microsomal CLint [5] [µL/min/mg] | Compound | pEC50 [3] | Emax [3] [%] | further results |
| --- | --- | --- | --- | --- | --- | --- | --- | --- | --- | --- | --- | --- | --- |
| > 2.42 | < 9.6 | 77.2 | 6.91 | 103 | 8.23 | 190 | 70.7 | 1.79 | 12.9 | CCS(=O)(=O)c1ccc(C(CO)C(=O)Nc2cc(Cl)c(-c3ccc(S(=O)(=O)C4CC4)cc3)c(Cl)c2)cc1 (single isomer, unassigned) [Example 38, (S)—N-(2,6-dichloro-4′-(cyclopropylsulfonyl)-[1,1′-biphenyl]-4-yl)-2-(4-(ethylsulfonyl)phenyl)-3-hydroxypropionamide or (R)—N-(2,6-dichloro-4′-(cyclopropylsulfonyl)-[1,1′-biphenyl]-4-yl)-2-(4-(ethylsulfonyl)phenyl)-3-hydroxypropionamide] | 7.64 | 179 | – |
| > 2.42 | < 9.6 | 79.6 | 7.14 | 51.2 | – | – | 56 | 1.33 | 17.3 | CCS(=O)(=O)c1ccc(CC(=O)Nc2cc(Cl)c(-c3ccc(S(=O)(=O)C4CC4)cc3)c(Cl)c2)nc1 [Example 21, N-(2,6-Dichloro-4′-(cyclopropylsulfonyl)-1,1′-biphenyl-4-yl)-2-(5-(ethylsulfonyl)pyridin-2-yl)acetamide] | 6.74 | 297 | CL_obs ([6]; IV 1 mg/kg, values marked **): 4.55** mL/min/kg; AUC(0-t) ([6]; mouse, plasma, IV 1 mg/kg): 3630 ng·h/mL; Cmax ([6]; mouse, plasma, IV 1 mg/kg): 716 ng/mL; half-life ([6]; mouse, plasma, IV 1 mg/kg): 4.19 h; Vd ([6]; mouse, plasma, IV 1 mg/kg, values marked *, read-out: Vss): 1.45 L/kg; bioavailability ([6]; mouse, plasma, Po 5 mg/kg vs IV 1 mg/kg): 30.9%; AUC(0-t) ([6]; mouse, plasma, Po 5 mg/kg): 5630 ng·h/mL; Cmax ([6]; mouse, plasma, Po 5 mg/kg): 611 ng/mL; half-life ([6]; mouse, plasma, Po 5 mg/kg): 3.83 h |
